Here are results for seven compounds from US20090247602A1, “COSMETIC USE OF CONJUGATED COMPOUNDS OF INDOLIC AUXINS” (EXSYMOL S.A.M., priority 2008, published 2009).

The assay concerns sensory neurons from explants of rachidian ganglia of rat embryos. The experiment in a line: Neurotrophic activity test: neurite outgrowth of dissociated sensory neurons. The format is cell-based. Conditions: 72 hours incubation; for % compared to the control: control = case 1. An excerpt:
In other respects, and forming the basis of the present invention, it has been discovered for a very small panel of structures limited to the only conjugates of aspartic and glutamic acids, an unexpected property that is a said-neurotrophic activity. This activity is also found in a class of endogenous proteins, the neurotrophins, and in particular in the “NGF” (or “nerve growth factor”), an essential growth and survival factor in the formation and the maintenance of the cutaneous nervous network (M. Bothwell, J. Invest. Dermatol. Symposium Proceedings (1997), vol. 2, pp. 27-30). This remarkable activity, without any connection with antioxidant properties of these compounds, has been evidenced through an in vitro test that consists in measuring the neurites outgrowth kinetics from rat embryos sensory neurons selected for their physiology very similar to the one of human sensory neurons.
Test: Evidence of the Neurotrophic Activity of Aminoacid Conjugates of Indolic Auxins
The experimental study has been achieved on dissociated sensory neurons from explants of rachidian ganglia of rat embryos, and prepared according to the method described by Hall A. K. and al (J. Neurosci. (1997), vol. 17, pp. 2775-2784). After dissection and dissociation, sensory neurons are at once incubated in the following culture media (in hexaplicate), according to three situations: • case 1: culture medium without NGF, and without active ingredient according to the invention (control) • case 2: culture medium without NGF, with an active ingredient according to the invention • case 3: culture medium with NGF (positive reference)
After an incubation time of 72 hours, cells are washed and fixed. They are then labelled by an anti β-tubulin antibody reacting with cellular bodies and outgrowths of neurons. After a disclosure with an Alexa Fluor 488 secondary antibody, colour picture inputs were proceeded (using “In Cell Analyzer 1000™”). These digital data are then used for measuring a relative density of neurite length compared to the non treated control (case 1).
The neurotrophic effect of tested compounds is expressed by an increase (in μm) of this density of neurite outgrowth of neurons, synonymous with a strengthended development kinetic of neuronal network and a better viability (survival) of this latter.

The mark [1] stands for this setting: 0.12 mg/ml, medium without NGF (case 2).
[2] abbreviates: 5.10^−6 mg/ml, medium with NGF (case 3, positive reference).

`O=C(O)C[C@H](NC(=O)Cc1c[nH]c2ccccc12)C(=O)O` [IAA-Asp]: under setting [1], the “Average density of neurite outgrowth of sensory neurons” value (from here on “Average density”) worked out at 6820 μm and the “% compared to the control” value is listed as 108%.
For `O=C(O)CC[C@H](NC(=O)Cc1c[nH]c2ccccc12)C(=O)O` [IAA-Glu, indolyl-3-acetylglutamic acid], under setting [1], the “Average density” value turned out to be 7335 μm and the “% compared to the control” value is 117%.
The corresponding values for `O=C(O)C[C@H](NC(=O)CCCc1c[nH]c2ccccc12)C(=O)O` [IBA-Asp, indolyl-3-butyrylaspartic acid] are 8297 μm and 132%.
On to `O=C(O)CC[C@H](NC(=O)CCCc1c[nH]c2ccccc12)C(=O)O` [IBA-Glu], for which, under setting [1], the “Average density” value is on record as 7195 μm and the “% compared to the control” value is 114%.
`O=C(O)C[C@H](NC(=O)CCc1c[nH]c2ccccc12)C(=O)O` [IPA-Asp]: under setting [1], the “Average density” value came out at 6980 μm and the “% compared to the control” value is 111%.
The corresponding values for `O=C(O)CC[C@H](NC(=O)CCc1c[nH]c2ccccc12)C(=O)O` [IPA-Glu] are 8247 μm and 131%.
As to “NGF: nerve growth factor, a neurotrophin; positive reference (case 3)”, under setting [2], the “Average density” value was determined as 11750 μm and the “% compared to the control” value turned out to be 187%.
